From ChEMBL document CHEMBL2380212, “Synthesis, single crystal and antitumor activities of benzimidazole-quinazoline hybrids” (Bioorg Med Chem Lett, 2013)

How the values were obtained:
SNB-75 = assay: Cytotoxicity against human SNB75 cells at 10 uM after 48 hrs by SRB assay; type: functional; details: SNB-75, 48 h, read-out: GI
PC-3 = assay: Cytotoxicity against human PC3 cells at 10 uM after 48 hrs by SRB assay; type: functional; details: PC-3, 48 h, read-out: GI
HT-29 = assay: Cytotoxicity against human HT-29 cells at 10 uM after 48 hrs by SRB assay; type: functional; details: HT-29, 48 h, read-out: GI
SW-620 = assay: Cytotoxicity against human SW620 cells at 10 uM after 48 hrs by SRB assay; type: functional; details: SW-620, 48 h, read-out: GI
OVCAR-5 = assay: Cytotoxicity against human OVCAR5 cells at 10 uM after 48 hrs by SRB assay; type: functional; details: OVCAR-5, 48 h, read-out: GI
BT-549 = assay: Cytotoxicity against human BT549 cells at 10 uM after 48 hrs by SRB assay; type: functional; details: BT-549, 48 h, read-out: GI
RXF 393 = assay: Cytotoxicity against human RXF393 cells at 10 uM after 48 hrs by SRB assay; type: functional; details: RXF 393, 48 h, read-out: GI
UACC-257 = assay: Cytotoxicity against human UACC257 cells at 10 uM after 48 hrs by SRB assay; type: functional; details: UACC-257, 48 h, read-out: GI
OVCAR-8 = assay: Cytotoxicity against human OVCAR8 cells at 10 uM after 48 hrs by SRB assay; type: functional; details: OVCAR-8, 48 h, read-out: GI
NCI-H322M = assay: Cytotoxicity against human NCI-H322M cells at 10 uM after 48 hrs by SRB assay; type: functional; details: read-out: GI
ACHN = assay: Cytotoxicity against human ACHN cells at 10 uM after 48 hrs by SRB assay; type: functional; details: read-out: GI
HCT-116 = assay: Cytotoxicity against human HCT116 cells at 10 uM after 48 hrs by SRB assay; type: functional; details: HCT-116, 48 h, read-out: GI
HOP-62 = assay: Cytotoxicity against human HOP62 cells at 10 uM after 48 hrs by SRB assay; type: functional; details: HOP-62, 48 h, read-out: GI
SK-OV-3 = assay: Cytotoxicity against human SKOV3 cells at 10 uM after 48 hrs by SRB assay; type: functional; details: SK-OV-3, 48 h, read-out: GI
T47D = assay: Cytotoxicity against human T47D cells at 10 uM after 48 hrs by SRB assay; type: functional; details: read-out: GI
UO-31 = assay: Cytotoxicity against human UO31 cells at 10 uM after 48 hrs by SRB assay; type: functional; details: UO-31, 48 h, read-out: GI
NCI-H460 = assay: Cytotoxicity against human NCI-H460 cells at 10 uM after 48 hrs by SRB assay; type: functional; details: NCI-H460, 48 h, read-out: GI
COLO 205 = assay: Cytotoxicity against human COLO205 cells at 10 uM after 48 hrs by SRB assay; type: functional; details: COLO 205, 48 h, read-out: GI
SK-MEL-2 = assay: Cytotoxicity against human SK-MEL-2 cells at 10 uM after 48 hrs by SRB assay; type: functional; details: SK-MEL-2, 48 h, read-out: GI
SF-295 = assay: Cytotoxicity against human SF295 cells at 10 uM after 48 hrs by SRB assay; type: functional; details: SF-295, 48 h, read-out: GI
IGROV-1 = assay: Cytotoxicity against human IGROV1 cells at 10 uM after 48 hrs by SRB assay; type: functional; details: IGROV-1, 48 h, read-out: GI
786-0 = assay: Cytotoxicity against human 786-0 cells at 10 uM after 48 hrs by SRB assay; type: functional; details: 786-0, 48 h, read-out: GI
CAKI-1 = assay: Cytotoxicity against human Caki1 cells at 10 uM after 48 hrs by SRB assay; type: functional; details: CAKI-1, 48 h, read-out: GI
HCC 2998 = assay: Cytotoxicity against human HCC2998 cells at 10 uM after 48 hrs by SRB assay; type: functional; details: HCC 2998, 48 h, read-out: GI
SK-MEL-5 = assay: Cytotoxicity against human SK-MEL-5 cells at 10 uM after 48 hrs by SRB assay; type: functional; details: SK-MEL-5, 48 h, read-out: GI
M14 = assay: Cytotoxicity against human M14 cells at 10 uM after 48 hrs by SRB assay; type: functional; details: M14, 48 h, read-out: GI
SK-MEL-28 = assay: Cytotoxicity against human SK-MEL-28 cells at 10 uM after 48 hrs by SRB assay; type: functional; details: SK-MEL-28, 48 h, read-out: GI
KM12 = assay: Cytotoxicity against human KM12 cells at 10 uM after 48 hrs by SRB assay; type: functional; details: KM12, 48 h, read-out: GI
RPMI-8226 = assay: Cytotoxicity against human RPMI8226 cells at 10 uM after 48 hrs by SRB assay; type: functional; details: RPMI-8226, 48 h, read-out: GI
TK-10 = assay: Cytotoxicity against human TK10 cells at 10 uM after 48 hrs by SRB assay; type: functional; details: TK-10, 48 h, read-out: GI
UACC-62 = assay: Cytotoxicity against human UACC62 cells at 10 uM after 48 hrs by SRB assay; type: functional; details: UACC-62, 48 h, read-out: GI
HL-60(TB) = assay: Cytotoxicity against human HL-60(TB) cells at 10 uM after 48 hrs by SRB assay; type: functional; details: HL-60, 48 h, read-out: GI
OVCAR-3 = assay: Cytotoxicity against human OVCAR3 cells at 10 uM after 48 hrs by SRB assay; type: functional; details: OVCAR-3, 48 h, read-out: GI
Hs-578T = assay: Cytotoxicity against human Hs578T cells at 10 uM after 48 hrs by SRB assay; type: functional; details: read-out: GI
MOLT-4 = assay: Cytotoxicity against human MOLT4 cells at 10 uM after 48 hrs by SRB assay; type: functional; details: MOLT-4, 48 h, read-out: GI
HCT-15 = assay: Cytotoxicity against human HCT15 cells at 10 uM after 48 hrs by SRB assay; type: functional; details: HCT-15, 48 h, read-out: GI
HOP-92 = assay: Cytotoxicity against human HOP92 cells at 10 uM after 48 hrs by SRB assay; type: functional; details: HOP-92, 48 h, read-out: GI
NCI-H23 = assay: Cytotoxicity against human NCI-H23 cells at 10 uM after 48 hrs by SRB assay; type: functional; details: NCI-H23, 48 h, read-out: GI
[1] = n-Octanol-phosphate buffer partition coefficient, log P of the compound at pH 7.4 by shake flask method; type: physicochemical
U-251 = assay: Cytotoxicity against human U251 cells at 10 uM after 48 hrs by SRB assay; type: functional; details: U-251, 48 h, read-out: GI
[2] = Cytotoxicity against human EKVX cells at 10 uM after 48 hrs by SRB assay; type: functional; details: read-out: GI
SR = assay: Cytotoxicity against human SR cells at 10 uM after 48 hrs by SRB assay; type: functional; details: read-out: GI

C=CCn1c(C)nc2ccc(Nc3nc(N4CCN(C)CC4)nc4ccccc34)cc21
inhibition of growth at 10 µM (SNB-75): 17.6% | inhibition of growth at 10 µM (PC-3): 25.9% | inhibition of growth at 10 µM (HT-29): 42.6% | inhibition of growth at 10 µM (SW-620): < 10% | inhibition of growth at 10 µM (OVCAR-5): 16.5% | inhibition of growth at 10 µM (BT-549): 20.7% | inhibition of growth at 10 µM (RXF 393): < 10% | inhibition of growth at 10 µM (UACC-257): < 10% | inhibition of growth at 10 µM (OVCAR-8): 23.4% | inhibition of growth at 10 µM (NCI-H322M): < 10% | inhibition of growth at 10 µM (ACHN): < 10% | inhibition of growth at 10 µM (HCT-116): 33% | inhibition of growth at 10 µM (HOP-62): 11.3% | inhibition of growth at 10 µM (SK-OV-3): < 10% | inhibition of growth at 10 µM (T47D): 20.6% | inhibition of growth at 10 µM (UO-31): 34.2% | inhibition of growth at 10 µM (NCI-H460): < 10% | inhibition of growth at 10 µM (COLO 205): 23.6% | inhibition of growth at 10 µM (SK-MEL-2): < 10% | inhibition of growth at 10 µM (SF-295): < 10% | inhibition of growth at 10 µM (IGROV-1): < 10% | inhibition of growth at 10 µM (786-0): < 10% | inhibition of growth at 10 µM (CAKI-1): 14.4% | inhibition of growth at 10 µM (HCC 2998): < 10% | inhibition of growth at 10 µM (SK-MEL-5): 18.3% | inhibition of growth at 10 µM (M14): < 10% | inhibition of growth at 10 µM (SK-MEL-28): < 10% | inhibition of growth at 10 µM (KM12): 20.5% | inhibition of growth at 10 µM (RPMI-8226): 28.5% | inhibition of growth at 10 µM (TK-10): < 10% | inhibition of growth at 10 µM (UACC-62): < 10% | inhibition of growth at 10 µM (HL-60(TB)): < 10% | inhibition of growth at 10 µM (OVCAR-3): < 10% | inhibition of growth at 10 µM (Hs-578T): 23.3% | inhibition of growth at 10 µM (MOLT-4): 43.1% | inhibition of growth at 10 µM (HCT-15): 10.1% | inhibition of growth at 10 µM (HOP-92): 42.4% | inhibition of growth at 10 µM (NCI-H23): 19.2% | logD [1]: 1.03 | inhibition of growth at 10 µM (U-251): 10.2%

C=CCn1c(C)nc2ccc(Nc3nc(N4CCOCC4)nc4ccccc34)cc21
inhibition of growth at 10 µM (SNB-75): 12.6% | inhibition of growth at 10 µM (PC-3): 11.4% | inhibition of growth at 10 µM (HT-29): 34.7% | inhibition of growth at 10 µM (SW-620): < 10% | inhibition of growth at 10 µM [2]: < 10% | inhibition of growth at 10 µM (OVCAR-5): < 10% | inhibition of growth at 10 µM (BT-549): < 10% | inhibition of growth at 10 µM (RXF 393): < 10% | inhibition of growth at 10 µM (UACC-257): < 10% | inhibition of growth at 10 µM (OVCAR-8): 20.1% | inhibition of growth at 10 µM (NCI-H322M): < 10% | inhibition of growth at 10 µM (ACHN): < 10% | inhibition of growth at 10 µM (HCT-116): < 10% | inhibition of growth at 10 µM (HOP-62): < 10% | inhibition of growth at 10 µM (SK-OV-3): < 10% | inhibition of growth at 10 µM (T47D): 11.2% | inhibition of growth at 10 µM (UO-31): 14.7% | inhibition of growth at 10 µM (NCI-H460): < 10% | inhibition of growth at 10 µM (COLO 205): < 10% | inhibition of growth at 10 µM (SK-MEL-2): < 10% | inhibition of growth at 10 µM (SF-295): < 10% | inhibition of growth at 10 µM (IGROV-1): < 10% | inhibition of growth at 10 µM (786-0): < 10% | inhibition of growth at 10 µM (SR): < 10% | inhibition of growth at 10 µM (CAKI-1): 11.5% | inhibition of growth at 10 µM (HCC 2998): < 10% | inhibition of growth at 10 µM (SK-MEL-5): < 10% | inhibition of growth at 10 µM (M14): < 10% | inhibition of growth at 10 µM (SK-MEL-28): < 10% | inhibition of growth at 10 µM (KM12): 11.9% | inhibition of growth at 10 µM (TK-10): < 10% | inhibition of growth at 10 µM (UACC-62): < 10% | inhibition of growth at 10 µM (HL-60(TB)): 61.9% | inhibition of growth at 10 µM (OVCAR-3): < 10% | inhibition of growth at 10 µM (Hs-578T): < 10% | inhibition of growth at 10 µM (HCT-15): < 10% | inhibition of growth at 10 µM (HOP-92): < 10% | inhibition of growth at 10 µM (NCI-H23): < 10% | logD [1]: 2.81 | inhibition of growth at 10 µM (U-251): < 10%
